Test results from ChEMBL document CHEMBL3132793, “Novel FK506 and FK520 analogues via mutasynthesis: mutasynthon scope and product characteristics” (Medchemcomm, 2013).
Values after ≈ are worked out from the molar mass of the structure shown.

How the values were obtained:
[1] = Solubility of the compound in phosphate buffered saline; type: physicochemical
[2] = Half life in mouse liver microsomes; type: ADME, Microsome
[3] = Half life in human liver microsomes; type: ADME
[4] = Inhibition of calcineurin in human Jurkat cells assessed as inhibition of NFAT-mediated IL-2 production after 8 hrs by beta-lactamase reporter gene assay; type: cell-based
[5] = phosphate buffered saline, read-out: solubility

Row | solubility [1, 5] [µM] | half-life [2] [min] | half-life [3] [min] | IC50 [4] [nM] | solubility ([1]; buffer) [µM] | Compound
1 | 42.4 (≈ 34.1 µg/mL) | 22.1 | 2.4 | 0.056 |  | C=CC[C@@H]1/C=C(\C)C[C@H](C)C[C@H](OC)[C@H]2O[C@@](O)(C(=O)C(=O)N3CCCC[C@H]3C(=O)O[C@H](/C(C)=C/[C@@H]3CC[C@@H](O)[C@H](OC)C3)[C@H](C)[C@@H](O)CC1=O)[C@H](C)C[C@@H]2OC [TACROLIMUS ANHYDROUS]
2 | 86.5 (≈ 67.1 µg/mL) | 3.8 | 3.1 | 0.072 |  | CC[C@@H]1/C=C(\C)C[C@H](C)C[C@H](OC)[C@H]2O[C@@](O)(C(=O)C(=O)N3CCCC[C@H]3C(=O)O[C@H](/C(C)=C/[C@H]3CCCC(O)CC3)[C@H](C)[C@@H](O)CC1=O)[C@H](C)C[C@@H]2OC (stereo not given in full)
3 | 13.4 (≈ 10 µg/mL) | 7.6 | 1.8 | 0.461 |  | CC[C@@H]1/C=C(\C)C[C@H](C)C[C@H](OC)[C@H]2O[C@@](O)(C(=O)C(=O)N3CCCC[C@H]3C(=O)O[C@H](/C(C)=C/C3CCOCC3)[C@H](C)[C@@H](O)CC1=O)[C@H](C)C[C@@H]2OC
4 |  |  |  | 0.283 |  | CO[C@H]1C[C@@H](C)C/C(C)=C/[C@@H](C)C(=O)C[C@H](O)[C@@H](C)[C@@H](/C(C)=C/[C@@H]2CC[C@@H](O)[C@@H](F)C2)OC(=O)[C@@H]2CCCCN2C(=O)C(=O)[C@]2(O)O[C@H]1[C@@H](OC)C[C@H]2C
5 | 1.3 (≈ 1.01 µg/mL) | 9 | 2.6 | 0.145 |  | C=CC[C@@H]1/C=C(\C)C[C@H](C)C[C@H](OC)[C@H]2O[C@@](O)(C(=O)C(=O)N3CCCC[C@H]3C(=O)O[C@H](/C(C)=C/[C@H]3CC[C@H](O)CC3)[C@H](C)[C@@H](O)CC1=O)[C@H](C)C[C@@H]2OC
6 |  | 17.4 | 2.4 | 0.205 | 40.2 (≈ 31.8 µg/mL) | CC[C@@H]1/C=C(\C)C[C@H](C)C[C@H](OC)[C@H]2O[C@@](O)(C(=O)C(=O)N3CCCC[C@H]3C(=O)O[C@H](/C(C)=C/[C@@H]3CC[C@@H](O)[C@H](OC)C3)[C@H](C)[C@@H](O)CC1=O)[C@H](C)C[C@@H]2OC [ASCOMYCIN]
7 | 0.7 (≈ 0.529 µg/mL) | 3 | 5.7 | 0.433 |  | C=CC[C@@H]1/C=C(\C)C[C@H](C)C[C@H](OC)[C@H]2O[C@@](O)(C(=O)C(=O)N3CCCC[C@H]3C(=O)O[C@H](/C(C)=C/[C@H]3CC=CCC3)[C@H](C)[C@@H](O)CC1=O)[C@H](C)C[C@@H]2OC
8 | 35.6 (≈ 27.8 µg/mL) | 11.3 | 3.2 | 0.082 |  | CC[C@@H]1/C=C(\C)C[C@H](C)C[C@H](OC)[C@H]2O[C@@](O)(C(=O)C(=O)N3CCCC[C@H]3C(=O)O[C@H](/C(C)=C/[C@@H]3CC[C@@H](O)[C@@H](F)C3)[C@H](C)[C@@H](O)CC1=O)[C@H](C)C[C@@H]2OC
9 |  |  |  | 0.249 |  | CC[C@@H]1/C=C(\C)C[C@H](C)C[C@H](OC)[C@H]2O[C@@](O)(C(=O)C(=O)N3CCCC[C@H]3C(=O)O[C@H](/C(C)=C/[C@H]3CC[C@H](O)CC3)[C@H](C)[C@@H](O)CC1=O)[C@H](C)C[C@@H]2OC
